This is an account of results in patent EP0381141B1, “Novel aryl- or heteroaryl-1-alkyl-pyrrole-2-carboxylic acid compounds useful in treating interleukin-1 mediated conditions” (MERRELL DOW PHARMACEUTICALS INC., priority 1989, dated 1990).

The subject of this assay is Interleukin-1 Secretion by Macrophages. As to the kind of experiment: Ex vivo inhibition of interleukin-1 secretion by macrophages (LPS-stimulated peritoneal cells from orally dosed mice; IL-1 measured by thymocyte H3-thymidine incorporation). The format is in vivo. Conditions: p.o. 3 times (40, 24 and 16 hours prior to sacrifice); for Interleukin-1 units/ml Mean ± Sem(n): 100 mg/kg, macrophage culture supernatant, unit = reciprocal of the dilution required to give 50% of maximal H3-thymidine incorporation; for inhibition at 100 mg/kg: Mus musculus, Macrophage, po, versus control group. The protocol: The interleukin-1 inhibitory properties of the compounds of this invention can readily be determined by standard and well known procedures.
Peritoneal cells from mice which had been orally dosed with 100 mg/kg of test compound 40, 24 and 16 hours prior to sacrifice, were collected by lavage, pooled and washed by centrifugation. The cells were resuspended in RPMI-1640 medium containing antibiotics, and plated. After 1 hour of incubation at 37°C, non-adherent cells were removed, and RPMI, with or without lipopolysaccharide, was added to each well. The presence of lipopolysaccharide will induce interleukin-1 secretion by macrophages. After incubation for 6 hours, the culture supernatant was collected, filtered and stored until assayed.
Mouse thymocytes were suspended in RPMI enriched with fetal bovine serum and 2-mercaptoethanol. Aliquots of cell suspension were incubated with an equal volume of dilutions of macrophage culture supernatant in the presence of a suboptimal amount of phytohemagglutinin for 72 hours in flat-bottom plates. Microcultures were pulsed with H³-thymidine for the last 16 hours and were harvested on glass fiber filters. H₃-thymidine will be incorporated into the DNA of actively proliferating cells. The radioactivity was determined by liquid scintillation counting, and interleukin-1 activity was expressed in units defined as the reciprocal of the dilution required to give 50% of maximal H³-thymidine incorporation.
Compounds were administered at a dosage of 100 mg/kg, p.o. 3 times (40, 24 and 16 hours prior to sacrifice). Compound 1: 1-(2-furanylmethyl)-1H-pyrrole-2-carboxylic acid Compound 2: 1-(phenylmethyl)-1Hpyrrole-2 -carboxylic acid Compound 3: 1-([1,1'-biphenyl]-4-ylmethyl)-1H -pyrrole-2-carboxylic acid
On the technique in general: Uptake of a labelled nucleoside into DNA is a usual measure of proliferation.

Consider `O=C(O)c1cccn1Cc1ccco1` [Compound 1, 1-(2-furanylmethyl)-1H-pyrrole-2-carboxylic acid], for which the “Interleukin-1 units/ml Mean ± Sem(n)” value is 10.2 +/- 3.4 units/ml and 100 mg/kg produced 93.2% inhibition.
The matching figures for `O=C(O)c1cccn1Cc1ccccc1` [Compound 2, 1-(phenylmethyl)-1H-pyrrole-2-carboxylic acid]: 171.3 +/- 7.9 units/ml and 67.4%.
As to `O=C(O)c1cccn1Cc1ccc(-c2ccccc2)cc1` [Compound 3, 1-([1,1'-Biphenyl]-4-ylmethyl)-1H-Pyrrole-2-Carboxylic Acid], the “Interleukin-1 units/ml Mean ± Sem(n)” value is on record as 26.6 +/- 3.9 units/ml and the inhibition (in general, the share of the control response that was lost under treatment) at 100 mg/kg came out at 94.9%.
